Converted amounts (≈) assume the structure as drawn.
How the values were obtained:
[1] = Solubility in gastric fluid (indirect weighing and UV dosage); assay type: physicochemical; details: gastric fluid (FU; fluid mimicking the gastric fluid), simulated gastric fluid, thermodynamic from solid, gastric fluid pH 1.2, FU
Experimental: Solution 1is prepared by dissolving 258.3 mg of AlCl3 * 6H2O and 508.3 mg of MgCl2 * 6H2O in 18 mL of deionized water. […] A hydro-alcoholic solution is obtained by mixing the first and second solution and keeping it in a dark environment, agitated and in nitrogen flow. To this solution, under nitrogen flow, it has to be added 10 ml of NaOH solution 1 M up to a pH between 10-11. Solid precipitated is left to be digested for 15 minutes and then it is separated through centrifugation. The solid recovered, has to be washed 2 times using 30 ml of deionized water and finally using 20 ml of ethanol. Finally the solid recovered is dryed out at 50 °C. […] Width of signals is due to low crystallinity of hydrotalcitic matrix that can be ascribed to an amorphous phase. […] The presence of resveratrol is confirmed by DTA signal (black trace) in which it is possible to observe a sequence of exhotermic processes due to resveratrol degradation. […] Little changes are observed after a 120 minute irradiation at 340 nm (Figure 3C. black trace: not irradiated; red trace: irradiated). […] Dissolution tests in fluids mimicking the gastric fluid (pH: 1-2, FU) at 37 °C, stirred and characterized by a blade rotation speed equal to 60 rotation/min in not sink conditions.

[2] = Photostability under irradiation at 340 nm (absorption spectra); assay type: physicochemical
Source text: • Figure 1. Characterization of the product obtained from the co-precipitation process according to the invention described in example 1. […] Figure 1B. The thermogravimetric analysis defines weight percentage of resveratrol load in co-precipitate. […] Characterization of the product obtained from the co-precipitation process according to the invention described in example 2. Figure 2A. […] Figure 2B. The thermogravimetric analysis to calculate weight percentage of resveratrol in co-precipitate. […] Figure 2C. […] Samples are prepared in aqueous solution. […] Column Luna Phenomenex RP-18, eluents A)-H2O + TFA 0.1% e B- MeCN (Gradient: 5min: 5% B; 20 min: until 95% B; 5 min: up to 5% B, Temperature: 25°C, flow speed of eluent 1.0 mL/min, detector: DAD (190-400 nm)) • Figure 3. […] A) Absorption spectrum of crystalline resveratrol. […] The dissolution rate is measured to acid gastric buffer (pH 1.2, XII italian FU) in non-sink condition at a temperature of 37°C and while being agitated (agitation 60 rotation/minute).
Solution 1is prepared by dissolving 258.3 mg of AlCl3 * 6H2O and 508.3 mg of MgCl2 * 6H2O in 18 mL of deionized water. […] A hydro-alcoholic solution is obtained by mixing the first and second solution and keeping it in a dark environment, agitated and in nitrogen flow. To this solution, under nitrogen flow, it has to be added 10 ml of NaOH solution 1 M up to a pH between 10-11. […]

[3] = cited from earlier work
[4] = cited from earlier work; remark: listed apart in the source
[5] = compared to resveratrol; cited from earlier work

| solubility [1] | photostability ([2]; aqueous solution, 30 minute irradiation at 340 nm) | photostability ([2]; solid, 60 minute irradiation at 340 nm) | Compound | pKa [3] | solubility in water [4] | maximum plasma peak [5] |
| --- | --- | --- | --- | --- | --- | --- |
| 44 µg/mL (≈ 193 µM) | photo-instability | photo-degraded | Oc1ccc(/C=C/c2cc(O)cc(O)c2)cc1 [resveratrol, trans-resveratrol] | ~10 | about 30 mg/l | – |
| – | – | – | resveratrol-L-arginine salt | – | – | increased |
